These results are taken from the supplement of paper PMC10307832.

Holding throughout (assay): relative viability (nuclei count vs DMSO), 5 days (fraction); higher = more cells survive
Compound in assay [1]: CCOc1cc2ncc(C#N)c(Nc3ccc(OCc4ccccn4)c(Cl)c3)c2cc1NC(=O)/C=C/CN(C)C [Neratinib] + COc1cccc2cc(-c3nc([C@H]4CC[C@H](C(=O)O)CC4)n4ncnc(N)c34)[nH]c12 [OSI-027] (partner 0.5 µM)
An outline of the steps: (§1)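 A single step with final 0.05% Triton X-100, 1% formaldehyde and 1 ug/ml Hoechst fixed the cells and stained nuclei 5 days after treatment. Lung cancer cell lines in 1536-well plates had been treated by pin tool the day after seeding with one drug alone or a fixed anchor-drug dose plus five library-drug doses (not always all listed) in √10 steps, and nuclei were counted on 4× images. Relative viability is the ratio of nuclei in treated wells to nuclei in vehicle wells, taken as the median of duplicate plates.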

Compound in assay [2]: CCOc1cc2ncc(C#N)c(Nc3ccc(OCc4ccccn4)c(Cl)c3)c2cc1NC(=O)/C=C/CN(C)C [Neratinib] + C[C@@H](Oc1cc(-c2cnn(C3CCNCC3)c2)cnc1N)c1c(Cl)ccc(F)c1Cl [Crizotinib] (partner 1 µM)
In outline: as §1

Compound in assay [3]: CCOc1cc2ncc(C#N)c(Nc3ccc(OCc4ccccn4)c(Cl)c3)c2cc1NC(=O)/C=C/CN(C)C [Neratinib] + C[C@]1(O)C[C@@H](c2nc(-c3ccc4ccc(-c5ccccc5)nc4c3)c3c(N)nccn32)C1 [Linsitinib] (partner 1 µM)
An outline of the steps:
as §1

Compound in assay [4]: CCOc1cc2ncc(C#N)c(Nc3ccc(OCc4ccccn4)c(Cl)c3)c2cc1NC(=O)/C=C/CN(C)C [Neratinib] + Cc1cc(Nc2cc(N3CCN(C)CC3)nc(Sc3ccc(NC(=O)C4CC4)cc3)n2)n[nH]1 [Tozasertib] (partner 0.1 µM)
In outline: as §1

Consider NCI-H460, for which the relative viability in assay [1] (first compound 0.01 µM) was found to be 0.61; in assay [1] (first compound 0.03162 µM), 0.891; in assay [1] (first compound 0.1 µM) it was 0.596; in assay [1] (first compound 0.3162 µM), 0.419; in assay [1] (first compound 1 µM), 0.0301; in assay [2] (first compound 0.01 µM), 1.2. In addition, the relative viability was 0.743 in assay [2] (first compound 0.03162 µM); 0.641 in assay [2] (first compound 0.3162 µM); 0.355 in assay [2] (first compound 1 µM); 0.918 in assay [3] (first compound 0.01 µM); 1.1 in assay [3] (first compound 0.03162 µM); 0.612 in assay [3] (first compound 0.3162 µM). In addition, the relative viability is 0.222 in assay [3] (first compound 1 µM); 0.587 in assay [4] (first compound 0.01 µM); 0.546 in assay [4] (first compound 0.03162 µM); 0.378 in assay [4] (first compound 0.1 µM); 0.268 in assay [4] (first compound 0.3162 µM); 0.0381 in assay [4] (first compound 1 µM).
In the case of NCI-H1793, the relative viability in assay [1] (first compound 0.01 µM) turned out to be 0.309; in assay [1] (first compound 0.03162 µM), 0.26; in assay [1] (first compound 0.1 µM), 0.237; in assay [1] (first compound 0.3162 µM), 0.167; in assay [1] (first compound 1 µM), 0.145; in assay [3] (first compound 0.01 µM) it was 0.863. Moreover, the relative viability in assay [3] (first compound 0.03162 µM) was 1.03; in assay [3] (first compound 0.1 µM) it was 0.494; in assay [3] (first compound 0.3162 µM) it was 0.596; in assay [3] (first compound 1 µM), 0.364; in assay [4] (first compound 0.01 µM), 0.317; in assay [4] (first compound 0.03162 µM) it was 0.354. The relative viability was 0.293 in assay [4] (first compound 0.1 µM), 0.176 in assay [4] (first compound 0.3162 µM) and 0.143 in assay [4] (first compound 1 µM).
Turning to NCI-H2347, the relative viability in assay [1] (first compound 0.01 µM) was 0.453; in assay [1] (first compound 0.03162 µM), 0.573; in assay [1] (first compound 0.3162 µM), 0.434; in assay [1] (first compound 1 µM), 0.32; in assay [2] (first compound 0.01 µM) it was 0.693; in assay [2] (first compound 0.03162 µM) it was 0.743. The relative viability in assay [2] (first compound 0.1 µM) is 0.629; in assay [2] (first compound 0.3162 µM), 0.675; in assay [2] (first compound 1 µM), 0.464; in assay [3] (first compound 0.01 µM), 0.989; in assay [3] (first compound 0.03162 µM), 0.988; in assay [3] (first compound 0.1 µM), 0.95. The relative viability is 0.992 in assay [3] (first compound 0.3162 µM); 0.974 in assay [3] (first compound 1 µM); 0.539 in assay [4] (first compound 0.01 µM); 0.624 in assay [4] (first compound 0.03162 µM); 0.541 in assay [4] (first compound 0.3162 µM); 0.384 in assay [4] (first compound 1 µM).
On to HARA, for which the relative viability was 0.533 in assay [1] (first compound 0.01 µM); 0.527 in assay [1] (first compound 0.03162 µM); 0.225 in assay [1] (first compound 0.3162 µM); 0.129 in assay [1] (first compound 1 µM); 1.19 in assay [2] (first compound 0.01 µM); 1.09 in assay [2] (first compound 0.03162 µM). Besides, the relative viability in assay [2] (first compound 0.1 µM) was determined as 0.731; in assay [2] (first compound 0.3162 µM) it was 0.782; in assay [2] (first compound 1 µM), 0.489; in assay [3] (first compound 0.01 µM), 0.94; in assay [3] (first compound 0.03162 µM), 0.91; in assay [3] (first compound 0.1 µM) it was 0.356. In addition, the relative viability in assay [3] (first compound 0.3162 µM) amounted to 0.338; in assay [3] (first compound 1 µM), 0.182; in assay [4] (first compound 0.01 µM), 0.106; in assay [4] (first compound 0.03162 µM), 0.104; in assay [4] (first compound 0.1 µM), 0.0889; in assay [4] (first compound 0.3162 µM), 0.11. Further, in assay [4] (first compound 1 µM), the relative viability worked out at 0.0872.
Regarding NCI-H1792, the relative viability in assay [1] (first compound 0.01 µM) is 0.825; in assay [1] (first compound 0.03162 µM), 0.87; in assay [1] (first compound 0.1 µM), 0.698; in assay [1] (first compound 0.3162 µM), 0.692; in assay [1] (first compound 1 µM), 0.424; in assay [2] (first compound 0.01 µM), 1.1. Moreover, the relative viability turned out to be 1.09 in assay [2] (first compound 0.03162 µM); 0.931 in assay [2] (first compound 0.1 µM); 0.867 in assay [2] (first compound 0.3162 µM); 0.872 in assay [2] (first compound 1 µM); 0.505 in assay [3] (first compound 0.01 µM); 0.468 in assay [3] (first compound 0.03162 µM). Besides, the relative viability is 0.53 in assay [3] (first compound 0.1 µM), 0.489 in assay [3] (first compound 0.3162 µM) and 0.463 in assay [3] (first compound 1 µM).
NCI-H1703: the relative viability was found to be 0.582 in assay [2] (first compound 0.03162 µM); 0.637 in assay [2] (first compound 0.1 µM); 0.5 in assay [2] (first compound 0.3162 µM); 0.14 in assay [2] (first compound 1 µM); 0.636 in assay [3] (first compound 0.01 µM); 0.641 in assay [3] (first compound 0.03162 µM). In addition, the relative viability in assay [3] (first compound 0.1 µM) is 0.659; in assay [3] (first compound 0.3162 µM) it was 0.516; in assay [3] (first compound 1 µM), 0.509.
CAL-12T: the relative viability is 0.614 in assay [1] (first compound 0.01 µM); 0.719 in assay [1] (first compound 0.03162 µM); 0.345 in assay [1] (first compound 0.1 µM); 0.237 in assay [1] (first compound 0.3162 µM); 0.197 in assay [1] (first compound 1 µM); 0.84 in assay [2] (first compound 0.01 µM). The relative viability is 0.945 in assay [2] (first compound 0.03162 µM); 0.408 in assay [2] (first compound 0.1 µM); 0.256 in assay [2] (first compound 0.3162 µM); 0.206 in assay [2] (first compound 1 µM); 0.771 in assay [3] (first compound 0.01 µM); 1.09 in assay [3] (first compound 0.03162 µM). Also, the relative viability in assay [3] (first compound 0.1 µM) was 0.703; in assay [3] (first compound 0.3162 µM) it was 0.455; in assay [3] (first compound 1 µM) it was 0.343; in assay [4] (first compound 0.01 µM), 0.487; in assay [4] (first compound 0.03162 µM) it was 0.288; in assay [4] (first compound 0.1 µM), 0.249. The relative viability worked out at 0.178 in assay [4] (first compound 0.3162 µM) and 0.122 in assay [4] (first compound 1 µM).
On to PC-3 [JPC-3], for which the relative viability was determined as 0.814 in assay [1] (first compound 0.01 µM); 0.749 in assay [1] (first compound 0.03162 µM); 0.662 in assay [1] (first compound 0.1 µM); 0.544 in assay [1] (first compound 0.3162 µM); 0.319 in assay [1] (first compound 1 µM); 1.09 in assay [2] (first compound 0.01 µM). Also, the relative viability was determined as 1.09 in assay [2] (first compound 0.03162 µM); 0.997 in assay [2] (first compound 0.1 µM); 0.948 in assay [2] (first compound 0.3162 µM); 0.345 in assay [2] (first compound 1 µM); 1.03 in assay [3] (first compound 0.01 µM); 1.03 in assay [3] (first compound 0.03162 µM). The relative viability in assay [3] (first compound 0.1 µM) was determined as 0.894; in assay [3] (first compound 1 µM) it was 0.348; in assay [4] (first compound 0.01 µM), 0.891; in assay [4] (first compound 0.03162 µM), 0.922; in assay [4] (first compound 0.1 µM), 0.822; in assay [4] (first compound 0.3162 µM), 0.773. Also, the relative viability in assay [4] (first compound 1 µM) was 0.406.
NCI-H2087: the relative viability amounted to 0.634 in assay [1] (first compound 0.03162 µM); 0.471 in assay [1] (first compound 0.1 µM); 0.335 in assay [1] (first compound 0.3162 µM); 0.267 in assay [1] (first compound 1 µM); 1.02 in assay [2] (first compound 0.01 µM); 1.03 in assay [2] (first compound 0.03162 µM). Further, the relative viability came to 0.978 in assay [2] (first compound 0.3162 µM); 0.667 in assay [2] (first compound 1 µM); 0.951 in assay [3] (first compound 0.01 µM); 0.949 in assay [3] (first compound 0.03162 µM); 0.765 in assay [3] (first compound 0.3162 µM); 0.615 in assay [3] (first compound 1 µM). Besides, the relative viability in assay [4] (first compound 0.01 µM) was 0.239; in assay [4] (first compound 0.03162 µM), 0.274; in assay [4] (first compound 0.1 µM), 0.197; in assay [4] (first compound 0.3162 µM) it was 0.193; in assay [4] (first compound 1 µM) it was 0.134.
